{
  "source": "ChEMBL document CHEMBL5257035",
  "about": "“Nucleoside Derived Antibiotics to Fight Microbial Drug Resistance: New Utilities for an Established Class of Drugs?” (J Med Chem, 2016)",
  "key": {"[1]": {"test_system": "Pseudomonas aeruginosa", "assay": "Antibacterial activity against Pseudomonas aeruginosa ATCC 15442 assessed as bacterial growth inhibition measured after 48 hrs by micro-broth dilution method", "format": "functional"}, "[2]": {"test_system": "Escherichia coli", "assay": "Antibacterial activity against Escherichia coli K12 assessed as bacterial growth inhibition by broth microdilution method", "format": "functional"}, "[3]": {"test_system": "Pseudomonas aeruginosa", "assay": "Antibacterial activity against Pseudomonas aeruginosa ATCC 27853 assessed as reduction in microbial growth by broth microdilution method", "format": "functional"}, "[4]": {"test_system": "Mycobacterium tuberculosis", "assay": "Antimycobacterial activity against Mycobacterium tuberculosis H37Rv assessed as reduction in bacterial growth", "format": "functional"}, "[5]": {"test_system": "Pseudomonas aeruginosa", "assay": "Antimicrobial activity against Pseudomonas aeruginosa ATCC 27853 assessed as inhibition of microbial growth"}, "[6]": {"test_system": "Mycobacterium avium", "assay": "Antimycobacterial activity against Mycobacterium avium ATCC 25291 assessed as bacterial growth inhibition", "format": "functional"}, "[7]": {"test_system": "Mycobacterium tuberculosis", "assay": "Antimycobacterial activity against Mycobacterium tuberculosis K4 assessed as reduction in bacterial activity", "format": "functional"}, "[8]": {"test_system": "Mycobacterium intracellulare", "assay": "Antimycobacterial activity against Mycobacterium intracellulare ATCC1954 E-3 assessed as microbial growth reduction", "format": "functional"}, "[9]": {"test_system": "Mycobacterium kansasii", "assay": "Antimycobacterial activity against Mycobacterium kansasii ATCC12478 assessed as microbial growth reduction", "format": "functional"}, "[10]": {"molecular_target": "T1, Phospho-N-acetylmuramoyl-pentapeptide-transferase (Escherichia coli, UniProt E2QF15)", "T1 sequence (E2QF15 whole entry)": "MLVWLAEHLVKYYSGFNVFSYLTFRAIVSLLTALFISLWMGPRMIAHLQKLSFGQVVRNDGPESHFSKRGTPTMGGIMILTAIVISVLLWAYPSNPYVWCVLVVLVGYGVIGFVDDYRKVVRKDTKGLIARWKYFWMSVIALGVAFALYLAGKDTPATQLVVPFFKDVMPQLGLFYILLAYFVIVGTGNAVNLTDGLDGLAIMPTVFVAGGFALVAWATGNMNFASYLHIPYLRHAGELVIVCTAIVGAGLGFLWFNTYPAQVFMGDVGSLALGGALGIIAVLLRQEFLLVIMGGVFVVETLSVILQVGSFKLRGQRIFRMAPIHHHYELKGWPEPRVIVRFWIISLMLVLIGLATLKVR", "assay": "Inhibition of MraY in Escherichia coli"}, "[11]": {"test_system": "Candida albicans", "assay": "Antifungal activity against wild type Candida albicans", "format": "functional"}, "[12]": {"test_system": "Pseudomonas aeruginosa", "assay": "Antibacterial activity against Pseudomonas aeruginosa infected in mouse", "format": "functional"}, "[13]": {"test_system": "Pseudomonas aeruginosa", "assay": "Antibacterial activity against Pseudomonas aeruginosa assessed as bacterial growth inhibition", "format": "functional"}, "[14]": {"assay": "Inhibition of Escherichia coli RNA polymerase"}, "[15]": {"test_system": "Streptococcus pneumoniae", "assay": "Antibacterial activity against Streptococcus pneumoniae B1 assessed as bacterial growth inhibition", "format": "functional"}, "[16]": {"test_system": "Mycobacterium tuberculosis", "assay": "Antibacterial activity against Mycobacterium tuberculosis ATCC 27294 assessed as reduction in bacterial growth by LORA method", "format": "functional"}, "[17]": {"assay": "Inhibition of Bacterial MraY", "parameters": "species or system Bacteria"}, "[18]": {"test_system": "Mycolicibacterium smegmatis", "assay": "Antimycobacterial activity against Mycobacterium smegmatis assessed as microbial growth inhibition", "format": "functional"}, "[19]": {"test_system": "Pseudomonas aeruginosa", "assay": "Antimicrobial activity against Pseudomonas aeruginosa ATCC 15692 assessed as microbial inhibition", "format": "functional, organism-based"}, "[20]": {"test_system": "Enterococcus faecalis", "assay": "Antimicrobial activity against Enterococcus faecalis ATCC 29212 assessed as microbial growth inhibition", "format": "functional, organism-based"}, "[21]": {"test_system": "Pseudomonas aeruginosa", "assay": "Antibacterial activity against beta-lactam resistant Pseudomonas aeruginosa assessed as bacterial growth inhibition", "format": "functional"}, "[22]": {"test_system": "Streptococcus pyogenes", "assay": "Antimicrobial activity against Streptococcus pyogenes ATCC 12344 assessed as reduction in microbial growth by broth microdilution method", "format": "functional"}, "[23]": {"test_system": "Enterococcus faecium", "assay": "Antimicrobial activity against Enterococcus faecium ATCC 19434 assessed as reduction in microbial growth by broth microdilution method", "format": "functional"}, "[24]": {"test_system": "Staphylococcus aureus", "assay": "Antimicrobial activity against methicillin-resistant Staphylococcus aureus 10925 assessed as reduction in microbial growth by broth microdilution method", "format": "functional"}, "[25]": {"molecular_target": "Phospho-N-acetylmuramoyl-pentapeptide-transferase (Bacillus subtilis (strain 168), UniProt Q03521)", "sequence (Q03521 whole entry)": "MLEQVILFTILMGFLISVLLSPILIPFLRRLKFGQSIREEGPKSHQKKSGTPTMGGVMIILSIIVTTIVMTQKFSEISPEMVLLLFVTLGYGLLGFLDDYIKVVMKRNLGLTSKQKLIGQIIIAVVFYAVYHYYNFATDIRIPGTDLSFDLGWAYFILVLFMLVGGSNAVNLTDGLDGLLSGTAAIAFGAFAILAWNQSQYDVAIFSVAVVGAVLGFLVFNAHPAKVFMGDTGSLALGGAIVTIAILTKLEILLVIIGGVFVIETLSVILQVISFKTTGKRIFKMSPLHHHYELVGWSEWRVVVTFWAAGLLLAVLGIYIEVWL", "assay": "Inhibition of Bacillus subtilis MraY"}},
  "note": "pIC50: −log10 of the molar value.",
  "data": [
    {"smiles": "C[C@H](N)C(=O)N(C)C[C@H](NC(=O)[C@H](C)NC(=O)N[C@@H](Cc1c[nH]c2ccccc12)C(=O)O)C(=O)NCC1C[C@@H](O)[C@H](n2ccc(=O)[nH]c2=O)O1", "note": "(stereo partly specified)", "values": [
      {"measurement": "MIC", "setting": "[1]", "result": 64, "unit": "mg/L"}
    ]},
    {"smiles": "Nc1nc2c(ncn2[C@@H]2O[C@H](CO)[C@@H](O)[C@H]2O)c(=O)o1", "values": [
      {"measurement": "MIC", "setting": "[2]", "result": 12.5, "unit": "mg/L"}
    ]},
    {"smiles": "CN(C[C@H](NC(=O)[C@H](CC[S+](C)[O-])NC(=O)N[C@@H](Cc1c[nH]c2ccccc12)C(=O)O)C(=O)N/C=C1/C[C@@H](O)[C@H](n2ccc(=O)[nH]c2=O)O1)C(=O)[C@@H](N)Cc1cccc(O)c1", "note": "(stereo partly specified)", "values": [
      {"measurement": "MIC", "setting": "[3]", "result": 8, "unit": "mg/L"},
      {"measurement": "MIC", "setting": "[4]", "result": 8, "unit": "mg/L"}
    ]},
    {"smiles": "C[C@@H](NC(=O)NC(Cc1cccc(O)c1)C(=O)O)C(=O)N[C@H](C(=O)N/C=C1/C[C@@H](O)[C@H](n2ccc(=O)[nH]c2=O)O1)[C@H](C)N(C)C(=O)[C@@H](N)C(N)c1cccc(O)c1", "note": "(stereo partly specified)", "values": [
      {"measurement": "MIC", "setting": "[5]", "result": 32, "unit": "mg/L"}
    ]},
    {"smiles": "CN1C(=O)[C@H]([C@H](O[C@H]2O[C@@H](CN)[C@H](O)[C@@H]2O)[C@H]2O[C@@H](n3ccc(=O)[nH]c3=O)[C@H](O)[C@@H]2O)N(C)CC=C1C(=O)O", "values": [
      {"measurement": "MIC", "setting": "[6]", "result": 0.05, "unit": "mg/L"}
    ]},
    {"smiles": "CN1C[C@H](O)[C@@H](C(=O)O)N(C)C(=O)[C@@H]1[C@H](O[C@@H]1O[C@H](CN)[C@@H](O)[C@H]1O)[C@H]1O[C@@H](n2ccc(=O)[nH]c2=O)[C@H](O)[C@@H]1O", "note": "[CAPRAZOL]", "values": [
      {"measurement": "MIC", "setting": "[7]", "result": 3.13, "unit": "mg/L"}
    ]},
    {"smiles": "CO[C@H]1[C@@H](O)[C@H](n2ccc(=O)[nH]c2=O)O[C@@H]1[C@@H](O[C@@H]1OC(C(=O)Nc2ccc(F)c(F)c2)=C[C@@H](O)[C@H]1O)C(N)=O", "values": [
      {"measurement": "MIC", "setting": "[8]", "result": 0.5, "unit": "mg/L"},
      {"measurement": "MIC", "setting": "[9]", "result": 0.5, "unit": "mg/L"}
    ]},
    {"smiles": "NC[C@H]1O[C@@H](O[C@@H](Cc2cn(CCCCCCCCCCc3ccccc3)nn2)[C@H]2O[C@@H](n3ccc(=O)[nH]c3=O)[C@H](O)[C@@H]2O)[C@H](O)[C@@H]1O", "values": [
      {"measurement": "pIC50", "setting": "[10]", "result": 5.10},
      {"measurement": "MIC", "setting": "[11]", "result": 20, "unit": "mg/L"}
    ]},
    {"smiles": "CSCC[C@H](NC(=O)NC(Cc1cccc(O)c1)C(=O)O)C(=O)NC(CN(C)C(=O)[C@@H](N)C(N)Cc1cccc(O)c1)C(=O)N/C=C1/C[C@@H](O)[C@H](n2ccc(=O)[nH]c2=O)O1", "note": "(stereo partly specified)", "values": [
      {"measurement": "ED50", "setting": "[12]", "result": 0.05, "unit": "mg/kg"},
      {"measurement": "MIC", "setting": "[13]", "result": 1.5, "unit": "mg/L"}
    ]},
    {"smiles": "CO[C@H]1[C@@H](O)[C@H](n2ccc(=O)[nH]c2=O)O[C@@H]1[C@@H](O[C@@H]1OC(C(=O)N[C@H]2CCCCNC2=O)=C[C@@H](O)[C@H]1O)C(N)=O", "values": [
      {"measurement": "pIC50", "setting": "[14]", "result": 7.00},
      {"measurement": "MIC", "setting": "[15]", "result": 12.5, "unit": "mg/L"},
      {"measurement": "MIC", "setting": "[16]", "result": 100, "unit": "mg/L"},
      {"measurement": "Ki", "setting": "[17]", "result": 0.01, "unit": "mg/L"},
      {"measurement": "MIC", "setting": "[18]", "result": 3, "unit": "mg/L"}
    ]},
    {"smiles": "CCCC(C)CC(C)CC(C)/C=C(C)/C=C/C(O)C(C)C(=O)OC1C(O)CN2CC1NC[C@H]1O[C@@H](OC([C@H]3O[C@@H](n4ccc(=O)[nH]c4=O)[C@H](O)[C@@H]3OS(=O)(=O)O)C2C(=O)O)[C@H](O)[C@@H]1O", "note": "(stereo partly specified)", "values": [
      {"measurement": "IC50", "setting": "[19]", "result": 0.065, "unit": "mg/L"},
      {"measurement": "IC50", "setting": "[20]", "result": 0.012, "unit": "mg/L"}
    ]},
    {"smiles": "CSCC[C@H](NC(=O)NC(Cc1cccc(O)c1)C(=O)O)C(=O)NC(CN(C)C(=O)[C@@H](N)C(Cc1cccc(O)c1)NCC(=O)O)C(=O)N/C=C1/C[C@@H](O)[C@H](n2ccc(=O)[nH]c2=O)O1", "note": "(stereo partly specified)", "values": [
      {"measurement": "MIC", "setting": "[21]", "result": 0.1, "unit": "mg/L"},
      {"measurement": "MIC", "setting": "[13]", "result": 1.5, "unit": "mg/L"}
    ]},
    {"smiles": "CCCCCCCCCCCCC[C@@H](CC(=O)O[C@H]1CN(C)[C@@H]([C@H](O[C@H]2O[C@@H](CN)[C@H](O)[C@@H]2O)[C@H]2O[C@@H](n3ccc(=O)[nH]c3=O)[C@H](OS(=O)(=O)O)[C@@H]2O)C(=O)N(C)[C@@H]1C(=O)O)OC(=O)C[C@H](C)CC(=O)O[C@@H]1O[C@@H](C)[C@H](OC)[C@@H](OC)[C@H]1OC", "values": [
      {"measurement": "MIC", "setting": "[22]", "result": 4, "unit": "mg/L"},
      {"measurement": "MIC", "setting": "[23]", "result": 4, "unit": "mg/L"},
      {"measurement": "MIC", "setting": "[24]", "result": 4, "unit": "mg/L"}
    ]},
    {"smiles": "C[C@H](N)C(=O)N[C@@H](C)[C@H](NC(=O)[C@H](C)NC(=O)N[C@@H](Cc1c[nH]c2ccccc12)C(=O)O)C(=O)N/C=C1\\O[C@@H](n2ccc(=O)[nH]c2=O)[C@H](O)[C@@H]1O", "values": [
      {"measurement": "pIC50", "setting": "[25]", "result": 7.38}
    ]}
  ]
}
